Test results reported in US7972848B2, “Isolation and identification of cross-reactive T cells” (Opexa Therapeutics, Inc., priority 2002, dated 2011).

Experiments:
[1] = test system: peripheral blood mononuclear cells (PBMC); test: Estimated precursor frequency of peptide-reactive and cross-reactive T cells in PBMC (proliferation assay); type: cell-based, human; details: for estimated frequency of T cells specific for the antigen: in PBMC, primed and tested with the same antigen; for estimated frequency of cross-reactive T cells (reactive to both peptides) primed by the peptide: primed by the labelled peptide
Protocol: The T cell responses to two synthetic peptides containing an identical core sequence of seven amino acids was measured to estimate the precursor frequency of cross-reactive T cells in PBMC. Two 13-mer peptides corresponding to residues 1-13 of HHV-6 U24 and residues 93-105 of MBP were synthesized and purified to greater than 95%. The MBP93-105 and HHV-6 (U24)1-13 peptides contain the identical core sequence of 7 amino acids with distinct flanking residues (MBP-IVTPRTPPPSQGK and HHV6-MDRPRTPPPSYSE) (SEQ ID NO: 8 and SEQ ID NO: 9, respectively).
Peripheral blood mononuclear cells (PBMC) were seeded at 3×10^5 cells per well in 96-well U-bottomed plates in the presence of the peptides of MBP93-105 or HHV-6 (U24)1-13 at 30 μg/ml or the whole MBP (40 μg/ml), respectively. A total of 24 wells were plated for each antigen. Seven days later, the cultures were tested for the reactivity to both peptides using AIM-V serum free medium (Gibco BRL, Grand Island, N.Y.) alone as a control. To this end, each culture was split into three identical aliquots and tested for the reactivity to MBP and the indicated peptides in duplicate. Two aliquots were tested for reactivity to peptide MBP93-105 and peptide HHV-6 (U24)1-13 at the same concentration of 30 μg/ml, respectively, in the presence of irradiated (6,000 rads) autologous PBMC (10^5 cells per well) as a source of antigen-presenting cells (APC). One aliquot served as a control (medium alone in the presence of APC). The reactivity of the end cultures was measured after 72 hours by proliferation assays as described in Zhang et al., “MHC restricted clonotypic depletion of human myelin basic protein by T cell vaccination,” Science 261:1451-1454 (1993), which is hereby incorporated by reference in its entirety.
According to the reactivity of the resulting T cells, they were categorized as mono-specific T cells or cross-reactive T cells. Mono-specific MBP- or HHV-6 reactive T cells were reactive only to the peptide originally used to prime the cells. Mono-specific T cells were defined as reactive to the given peptide when CPM was greater than 1,000 and exceeded CPM of the control (medium alone) and of the other peptide by at least three-fold. Cross-reactive T cells were reactive to both peptides after being originally primed with only one of the peptides. Cross-reactive T cells were defined as CPM of both peptides exceeded 1,000 and the control CPM by at least three-fold. The frequency of peptide-reactive T cells was then estimated by dividing the number of positive wells by the total number of PBMC seeded in the initial culture.

serum IgG antibodies = test: Serum antibody reactivity to the peptides by ELISA; type: binding, human; details: serum dilutions 1:50 and 1:100; MS patients compared to control subjects
Protocol: We further addressed whether the increased T cell responses to both peptides of HHV-6 (U24)1-13 and MBP93-105 were consistent with potential B cell sensitization to the peptides in MS patients as compared to healthy controls. To this end, serum specimens freshly obtained from the same MS patients and the control subjects were examined for specific antibody reactivity to the peptides by ELISA.
Antibody titers were determined in serum specimens by ELISA. Briefly, microtiter plates were coated overnight at 4° C. with the peptides at 5 μg/ml in a carbonate buffer (100 mM, pH 9.5). An irrelevant peptide and MBP41-59 were used as reference peptides. Non-specific binding sites were saturated with FBS-PBS for 1 hour and washed subsequently with PBS-T. Serum samples were prepared in serial dilutions (1:50, 1:100, 1:500) with FBS-PBS and 100 μl of each sample were added in duplicate wells. The rest of the procedure is the same as that described above.

[2] = test system: MBP83-99 specific and MBP93-105 specific T cell clones; test: Cross-reactivity of T cell responses of MBP83-99 and MBP93-105 specific T cell clones; type: cell-based, human; details: four MBP83-99 specific and six MBP93-105 specific T cell clones; data not shown
Source text: Although the T cell recognition of MBP in MS patients is relatively heterogeneous, some regions of MBP have immunodominant properties, such as the 84-102/83-99 region and the 151-170 region of MBP. The immunodominant properties of these regions may be associated with their binding affinity to HLA-DR (DRB 1*1501) preferentially expressed in the MS population. […] Although the 93-105 region of MBP homologues and the 1-13 region of HHV-6 (U24) have an overlap of 4 amino acids (PRTP) (SEQ ID NO:11) with the 83-99 immunodominant region of MBP, the PRTP sequence alone is not sufficient to form an individual T cell epitope and is unlikely to represent the immunodominant T cell epitopes. […] However, the possibility exists that the increased T cell sensitization to MBP in MS patients may be initially triggered by the HHV-6 antigen that shares the sequence homology with MBP93-105 and later spreads to other epitopes of MBP by the mechanism known as epitope spreading.

HLA-DR (DRB1*1501) = HLA-DR (DRB1*1501) (Homo sapiens, UniProt P01903+P01911); details: cited from earlier work

Row | Substance | estimated frequency of T cells specific for the antigen ([1]; MS patients) | estimated frequency of cross-reactive T cells (reactive to both peptides) primed by the peptide ([1]; MS patients) | estimated frequency of T cells specific for the antigen ([1]; healthy controls) | estimated frequency of cross-reactive T cells (reactive to both peptides) primed by the peptide ([1]; healthy controls) | serum antibody titers for the peptide (serum IgG antibodies) | cross-reactivity between T cell responses to MBP83-99 peptide and MBP93-105 peptide [2] | binding affinity to DRB1*1501 / HLA-DR (HLA-DR (DRB1*1501)) | cross-reactive T cells primed by the peptide as share of all T cells recognizing peptide MBP93-105 ([1]; MS cohort) | frequency of T cells initially primed with the whole MBP and reacted to peptide HHV-6 (U24)1-13 ([1]; MS patients, p=0.08 vs control) | frequency of T cells initially primed with the whole MBP and reacted to peptide HHV-6 (U24)1-13 ([1]; control group)
1 | IVTPRTPPPSQGK (listed as Homo sapiens) [MBP93-105] | 0.53×10^−6 | 0.36×10^−6 | 0.19×10^−6 | 0.09×10^−6 | elevated | no cross-reactivity | does not have high binding affinity | – | – | –
2 | 84-103: peptide corresponding to the 84-103 region of MBP (DPGSRPHLIRLFSRDAPGRE; UniProt P02686 84-103, looked up, fragment) | – | – | – | – | – | – | highest binding affinity | – | – | –
3 | 144-163: peptide corresponding to the 144-163 region of MBP (HGSKYLATASTMDHARHGFL; UniProt P02686 144-163, looked up, fragment) | – | – | – | – | – | – | highest binding affinity | – | – | –
4 | myelin basic protein [whole MBP] | 0.6×10^−6 | – | 0.6×10^−6 | – | – | – | – | – | – | –
5 | MDRPRTPPPSYSE (listed as Homo sapiens) [HHV-6 (U24)1-13] | 0.7×10^−6 | – | 0.32×10^−6 | 0.17×10^−6 | elevated | – | – | greater than 50% | 0.33×10^−6 | 0.05×10^−6
